The values that follow come from ChEMBL document CHEMBL3817791, “Discovery of 4-(4-aminopyrazolo[1,5-a][1,3,5]triazin-8-yl)benzamides as novel, highly potent and selective, orally bioavailable inhibitors of Tyrosine Threonine Kinase, TTK” (Bioorg Med Chem Lett, 2016).

Data set [1] is described as follows: Cmax in CD-1 nude mouse at 25 mg/ml, po. Type of data set: ADME, organism-based. The arrangement: dose 25 mg/ml, route oral. Particulars: in vivo.
A short description of data set [2]: Cmax in CD-1 nude mouse at 70 mg/ml, po. The arrangement: dose 70 mg/ml, route oral. In kind it is ADME, organism-based. Particulars: in vivo.
The target of data set [3] is Aurora kinase B/Inner centromere protein (Homo sapiens, UniProt Q96GD4). The data set is described as follows: Inhibition of recombinant human His-tagged Aurora B/full length recombinant human N-terminal GST-tagged INCENP (821-end residues) expressed in baculovirus infected Sf21 cells by radiometric assay.
In data set [4] the target is T1, Serine/threonine-protein kinase PLK4 (Homo sapiens, UniProt O00444).
T1 sequence (O00444 whole entry): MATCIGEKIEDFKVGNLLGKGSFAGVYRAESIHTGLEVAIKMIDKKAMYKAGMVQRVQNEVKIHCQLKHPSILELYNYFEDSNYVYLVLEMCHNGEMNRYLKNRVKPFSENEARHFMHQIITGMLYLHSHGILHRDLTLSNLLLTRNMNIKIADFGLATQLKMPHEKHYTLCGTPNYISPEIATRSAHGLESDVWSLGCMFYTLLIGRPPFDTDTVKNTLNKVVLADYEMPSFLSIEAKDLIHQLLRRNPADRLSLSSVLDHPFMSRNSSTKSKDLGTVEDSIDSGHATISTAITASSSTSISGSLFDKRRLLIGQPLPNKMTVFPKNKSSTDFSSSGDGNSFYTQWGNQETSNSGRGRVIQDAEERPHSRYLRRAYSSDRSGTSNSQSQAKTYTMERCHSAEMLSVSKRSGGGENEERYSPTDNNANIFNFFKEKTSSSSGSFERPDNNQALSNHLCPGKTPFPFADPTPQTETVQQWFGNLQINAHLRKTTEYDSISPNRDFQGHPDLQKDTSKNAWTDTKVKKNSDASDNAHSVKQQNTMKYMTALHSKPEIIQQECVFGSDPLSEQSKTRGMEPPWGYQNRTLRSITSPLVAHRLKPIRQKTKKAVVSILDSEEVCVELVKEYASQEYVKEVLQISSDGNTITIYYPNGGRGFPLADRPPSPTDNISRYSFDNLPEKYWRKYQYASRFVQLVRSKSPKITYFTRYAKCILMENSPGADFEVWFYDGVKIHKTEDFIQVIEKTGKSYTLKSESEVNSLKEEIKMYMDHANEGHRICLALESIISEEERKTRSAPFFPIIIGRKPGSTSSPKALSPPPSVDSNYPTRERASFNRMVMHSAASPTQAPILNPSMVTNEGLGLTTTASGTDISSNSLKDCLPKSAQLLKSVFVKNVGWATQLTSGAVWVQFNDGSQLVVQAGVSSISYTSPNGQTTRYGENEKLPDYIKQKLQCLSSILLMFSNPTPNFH
As to the kind of experiment: Inhibition of human PLK4 by radiometric assay.

The nature of data set [5]: Oral bioavailability in Sprague-Dawley rat. Type of data set: ADME, organism-based. As to conditions: in vivo.
The nature of data set [6]: Cmax in Sprague-Dawley rat at 1 mg/ml, iv. Type of data set: ADME, organism-based. The arrangement: dose 1 mg/ml, route intravenous. As to conditions: in vivo.
The nature of data set [7]: Half life in Sprague-Dawley rat at 1 mg/ml, iv. In kind it is ADME, organism-based. As to conditions: in vivo.
The nature of data set [8]: AUC (0 to last) in CD-1 nude mouse at 25 mg/ml, po. Type of data set: ADME, organism-based. The arrangement: dose 25 mg/ml, time 0 - last, route oral. As to conditions: in vivo.

Sequence of Aurora kinase B/Inner centromere protein (Q96GD4 whole entry): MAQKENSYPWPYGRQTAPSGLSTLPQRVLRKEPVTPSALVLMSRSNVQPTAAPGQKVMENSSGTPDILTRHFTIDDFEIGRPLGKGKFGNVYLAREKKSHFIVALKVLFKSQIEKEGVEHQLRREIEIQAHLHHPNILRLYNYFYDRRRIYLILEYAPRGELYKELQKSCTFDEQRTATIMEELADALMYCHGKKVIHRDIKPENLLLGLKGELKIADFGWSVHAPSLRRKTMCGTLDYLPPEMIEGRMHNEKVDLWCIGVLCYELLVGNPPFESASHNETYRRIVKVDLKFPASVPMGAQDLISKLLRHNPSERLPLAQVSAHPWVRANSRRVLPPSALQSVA
Sequence of Aurora kinase B/Inner centromere protein (Q9NQS7 whole entry, further chain): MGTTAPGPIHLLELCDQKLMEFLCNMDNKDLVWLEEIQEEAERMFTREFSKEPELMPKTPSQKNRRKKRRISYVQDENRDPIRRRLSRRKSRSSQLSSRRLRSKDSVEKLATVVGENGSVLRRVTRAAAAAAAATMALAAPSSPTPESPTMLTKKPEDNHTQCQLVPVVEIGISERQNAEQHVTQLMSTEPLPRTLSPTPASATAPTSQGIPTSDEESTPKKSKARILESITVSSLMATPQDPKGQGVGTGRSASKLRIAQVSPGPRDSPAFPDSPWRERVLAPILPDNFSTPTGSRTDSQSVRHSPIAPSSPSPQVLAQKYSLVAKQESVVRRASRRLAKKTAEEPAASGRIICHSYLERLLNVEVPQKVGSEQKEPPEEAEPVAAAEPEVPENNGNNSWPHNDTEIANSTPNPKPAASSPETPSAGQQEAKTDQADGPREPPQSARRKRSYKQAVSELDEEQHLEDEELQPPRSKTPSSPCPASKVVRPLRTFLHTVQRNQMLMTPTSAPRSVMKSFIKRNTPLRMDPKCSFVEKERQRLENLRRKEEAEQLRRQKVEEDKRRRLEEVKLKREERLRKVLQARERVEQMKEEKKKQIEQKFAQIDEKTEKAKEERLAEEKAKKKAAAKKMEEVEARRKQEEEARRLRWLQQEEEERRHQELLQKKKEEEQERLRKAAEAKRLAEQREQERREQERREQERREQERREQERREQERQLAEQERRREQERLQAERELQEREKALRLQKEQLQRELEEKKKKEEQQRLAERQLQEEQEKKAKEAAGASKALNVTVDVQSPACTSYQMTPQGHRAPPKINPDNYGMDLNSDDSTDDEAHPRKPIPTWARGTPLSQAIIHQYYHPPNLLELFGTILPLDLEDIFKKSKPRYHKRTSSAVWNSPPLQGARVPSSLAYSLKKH

For `Cc1cc(-c2cnn3c(NCC4CCOCC4)nc(Oc4ccccc4)nc23)ccc1C(=O)NC1CC1`, the Cmax (usually the highest concentration seen after dosing) in data set [1] turned out to be 3200 ng/mL; in data set [2], 7700 ng/mL; in data set [6], 411 ng/mL. The IC50 in data set [3] and in data set [4] was over 50 µM each time. The bioavailability (commonly dose-corrected exposure relative to a reference, in per cent) in data set [5] was 97%. In data set [7], the half-life – broadly, the time in which the quantity being followed falls by half – was 1.53 h. The AUC(0-t) (as a rule, the area under the concentration-time curve up to a stated or last time point) in data set [8] was 19100 ng·h/mL.
